The record followed here is ChEMBL document CHEMBL4304796, “DPP1 Inhibitors: Exploring the Role of Water in the S2 Pocket of DPP1 with Substituted Pyrrolidines” (ACS Med Chem Lett, 2019).

T1 sequence (P53634 25-134 limits assumed): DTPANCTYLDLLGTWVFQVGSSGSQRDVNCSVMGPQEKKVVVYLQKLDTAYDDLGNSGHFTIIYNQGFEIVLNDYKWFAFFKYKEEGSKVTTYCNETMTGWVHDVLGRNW
T1 sequence (P53634 231-394 limits assumed): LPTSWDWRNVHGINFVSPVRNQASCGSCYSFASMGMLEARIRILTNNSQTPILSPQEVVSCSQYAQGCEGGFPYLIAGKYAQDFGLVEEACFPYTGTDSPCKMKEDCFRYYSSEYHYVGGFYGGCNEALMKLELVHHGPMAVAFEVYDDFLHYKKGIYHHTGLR
T1 sequence (P53634 395-463 limits assumed): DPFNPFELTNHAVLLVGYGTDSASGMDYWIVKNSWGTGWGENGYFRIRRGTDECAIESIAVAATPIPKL

The first test addresses T1, Dipeptidyl peptidase 1 (Homo sapiens, UniProt P53634). The test is described as follows: Inhibition of recombinant human DPPI using H-Gly-Arg-AFC as substrate preincubated for 30 mins followed by substrate addition measured after 60 mins by fluorescence plate reader analysis.
Consider `N#Cc1ccc(-c2ccc(C[C@@H](C#N)NC(=O)[C@@H]3CC(F)(F)CN3)cc2)cc1`, for which the IC50 was 79.4 nM. On the same count and under the same terms, under `N#Cc1ccc(-c2ccc(C[C@@H](C#N)NC(=O)[C@@H]3C[C@@H](F)CN3)cc2)cc1` stands 631 nM; under `N#Cc1ccc(-c2ccc(C[C@@H](C#N)NC(=O)[C@@H]3C[C@H](O)CN3)cc2)cc1`, 6.31 nM. Still for that read-out and setting: under `CS[C@@H]1CN[C@H](C(=O)N[C@H](C#N)Cc2ccc(-c3ccc(C#N)cc3)cc2)C1` stands 0.398 nM. Still for that read-out and setting: under `N#Cc1ccc(-c2ccc(C[C@@H](C#N)NC(=O)[C@@H]3CCCN3)cc2)cc1` stands 50.1 nM; under `N#Cc1ccc(-c2ccc(C[C@@H](C#N)NC(=O)[C@@H]3C[C@H](F)CN3)cc2)cc1`, 1.58 nM.

The next test addresses T1, Dipeptidyl peptidase 1. The test is described as follows: Inhibition of recombinant human DPPI using H-Gly-Arg-AMC as substrate preincubated for 30 mins followed by substrate addition measured after 60 mins by fluorescence plate reader analysis.
As for `N#C[C@H](Cc1ccc(-c2ccccc2)cc1)NC(=O)[C@@H]1C[C@@H](O)CN1`, the 50% inhibitory concentration (IC50) was 158 nM. `N#Cc1ccc(-c2ccc(C[C@@H](C#N)NC(=O)[C@@H]3C[C@@H](O)CN3)cc2)cc1`: the 50% inhibitory concentration (IC50) is 50.1 nM.
